{"source": "patent US7605142B2", "about": "“Expression of cyclin G1 in tumors” (University of Southern California, priority 1995, dated 2009)", "tested_on": "MG-63 cells", "experiment": "Ganciclovir cytotoxicity/bystander effects in HStk vector transduced MG-63 cells", "format": "cell-based, human", "details": "GCV 20 μg/ml, 10 days", "procedure": "Initial dose-response studies determined the sensitivity of MG-63 cells and the optimal concentrations of G418 used to select transduced cells. Upon G418 selection, varying proportions of HStk-transduced and non-transduced MG-63 cells (plating density 2.5×10^4 cells) were exposed to 20 μg GCV/ml D10 in each of six-well plates, for 10 days. […] Bystander effects of GCV treatment were compared to those in HStk-transduced NIH 3T3 cells (ATCC No. CRL 1658)."}
{"smiles": "Nc1nc(O)c2ncn(COC(CO)CO)c2n1", "note": "[GCV, ganciclovir]", "values": [{"measurement": "degree of confluency", "setting": "10% HStk+/90% HStk− MG-63 cells", "result": 15, "unit": "%"}, {"measurement": "degree of confluency", "setting": "30% HStk+/70% HStk− MG-63 cells", "result": 15, "unit": "%"}, {"measurement": "degree of confluency", "setting": "50% HStk+/50% HStk− MG-63 cells", "result": 10, "unit": "%"}, {"measurement": "degree of confluency", "setting": "100% HStk− (non-transduced) MG-63 cells", "result": 75, "unit": "%"}, {"measurement": "degree of confluency", "setting": "greater than 50% HStk+ MG-63 cells", "result": "< 10", "unit": "%"}]}
